Test results reported in patent US11672786B2, “Methods of treating diseases associated with repeat instability” (The Hospital for Sick Children, priority 2016, dated 2023).

Assays:
long (CAG)20 slip-out = experiment: in vitro repair assay by HeLa cell extracts, long (CAG)20 slip-out; type: biochemical, human
From the text: Panel A of […] is a schematic of the in vitro repair assay. Starting DNAs and repair products released the repeat-containing fragment, which is resolved on PAGE and assessed on a molar level by Southern blotting and densitometry. Repair of different DNA substrates containing a long (CAG)20 slip-out (Panel B of FIG. 3) long (CTG)20 slip-out (Panel C of FIG. 3), a single CAG slip-out (Panel D of FIG. 3) or a single G-T mismatch (Panel E of FIG. 3), in the absence or in the presence of NA. Slipped-DNA substrates were prepared from hybrids of (CAG)50●(CTG)30, (CAG)30●(CTG)50 or of (CAG)50●(CTG)49. Repair of the G-T mismatch reconstitutes a HindIII restriction site, as shown schematically. Graphs show percentage repair efficiencies to repaired product relative to all repeat-containing fragments in the lane, values are normalized to the NA-free efficiency. […]
To determine how the binding of NA to slipped DNA structures affects repair, a series of circular slipped heteroduplex substrates was made with an excess of repeats with a nick located either 5′ or 3′ of the slip-out (FIG. 3). […] All these substrates were processed in […] by HeLa extracts and then were assessed for repair. Repair products were analyzed by Southern blotting, probed for the repeat-containing fragment, and compared with starting material, which permitted quantitative assessment of repair efficiency at a molar level. […]

d(CAG)9 = d(CAG)9 immobilization 497 RU; cited from earlier work
[1] = tested on: Slip-outs of 3, 5, 11 or 15 CAG repeats; experiment: band-shift NA binding to slip-outs of 3, 5, 11 or 15 CAG repeats; details: NA 15 μM and 50 μM
Protocol: Slip-outs of 3, 5, 11 or 15 CAG repeats extruded as a single slip-out from a fully base-paired backbone (see top panel, DNAs sequence and structure). One pmol of each substrate was mixed with increasing concentrations of NA (15 μM and 50 μM) and resolved on 4% polyacrylamide gels. All lanes are from the same gel, and they were separated for clarity. NA-DNA complexes are shown by brackets, free DNA is indicated by arrowheads. For the linear substrate, there is no NA binding (white arrowheads); at the higher concentration of NA, a small decrease of the short slip-outs DNAs (3 and 5 repeats) is observed (grey arrowheads), but it is not possible to define a clear shifted band; band-shift is evident for the (CAG)11 and (CAG)15 slip-out DNAs (black arrowheads). The relative mobility shift was measured (graph panel) as the ratio of the migration distance of each NA-DNA complex to the migration distance of the free DNA. The migration distance was measured from the well to a consistent centre point of each band. Histograms indicate the mean of three independent experiments and the corresponding standard deviation. P-values were calculated by Student's t test.

## naphthyridine-azaquinolone
Long (CAG)20 slip-out
  effect on repair of long (CAG)20 slip-outs: specifically inhibits repair
d(CAG)9
  changes in the SPR intensity on NA binding: 140 RU
[1]
  NA binding by slip-out length (relative mobility shift): significantly better for longer than shorter CAG slip-outs
